Results as given in patent US12257237B2 (priority 2017, dated 2025).
“And” between values parts separate entries of the source, which are not always exact repeats. Identical values can stand only once.

Assay: Drug tolerability (body weight) in TC-71 Ewing sarcoma xenograft model
Assay type: in vivo, Athymic nude mice
Conditions: for BWL %: negative = loss vs day 9
Method: Experiments were performed with female Athymic nude mice, 9-10 weeks old obtained from Harlan Laboratories (Udine, Italy). They were maintained under Specific Pathogen Free conditions with constant temperature and humidity, according to the institutional guidelines.
Tumour growth mice was monitored two/three times a week (depending on tumour growth rate, to avoid unnecessary stress to the animals) by Vernier caliper. Mice were sacrificed when tumour reached a mean weight of 2±0.5 gr. The antitumour activity will be expressed as T/C %, where T and C were the mean tumour weight of treated and control groups, respectively. Mice were monitored daily and weighted at least two times a week. Tolerability was evaluated on the basis of body weight loss (BWL) and clinical observation.

[1] = EDO40: EDO-S101 40 mg/kg, day 9 from tumour inoculum (treatment start)
[2] = EDO40: EDO-S101 40 mg/kg, day 10 from tumour inoculum
[3] = EDO40: EDO-S101 40 mg/kg, day 11 from tumour inoculum
[4] = EDO40: EDO-S101 40 mg/kg, day 14 from tumour inoculum
[5] = EDO40: EDO-S101 40 mg/kg, day 16 from tumour inoculum
[6] = EDO40: EDO-S101 40 mg/kg, day 18 from tumour inoculum
[7] = EDO40: EDO-S101 40 mg/kg, day 21 from tumour inoculum
[8] = EDO40: EDO-S101 40 mg/kg, day 23 from tumour inoculum
[9] = EDO40: EDO-S101 40 mg/kg, day 25 from tumour inoculum
[10] = EDO40: EDO-S101 40 mg/kg, day 28 from tumour inoculum
[11] = EDO40: EDO-S101 40 mg/kg, day 30 from tumour inoculum
[12] = EDO40: EDO-S101 40 mg/kg, day 32 from tumour inoculum
[13] = EDO60: EDO-S101 60 mg/kg, day 9 from tumour inoculum (treatment start)
[14] = EDO60: EDO-S101 60 mg/kg, day 10 from tumour inoculum
[15] = EDO60: EDO-S101 60 mg/kg, day 11 from tumour inoculum
[16] = EDO60: EDO-S101 60 mg/kg, day 14 from tumour inoculum
[17] = EDO60: EDO-S101 60 mg/kg, day 16 from tumour inoculum
[18] = EDO60: EDO-S101 60 mg/kg, day 18 from tumour inoculum
[19] = EDO60: EDO-S101 60 mg/kg, day 21 from tumour inoculum
[20] = EDO60: EDO-S101 60 mg/kg, day 23 from tumour inoculum
[21] = EDO60: EDO-S101 60 mg/kg, day 25 from tumour inoculum
[22] = EDO60: EDO-S101 60 mg/kg, day 28 from tumour inoculum
[23] = EDO60: EDO-S101 60 mg/kg, day 30 from tumour inoculum
[24] = EDO60: EDO-S101 60 mg/kg, day 32 from tumour inoculum
[25] = EDO60: EDO-S101 60 mg/kg, day 35 from tumour inoculum
[26] = EDO60: EDO-S101 60 mg/kg, day 38 from tumour inoculum
[27] = EDO60: EDO-S101 60 mg/kg, day 42 from tumour inoculum
[28] = EDO60: EDO-S101 60 mg/kg, day 46 from tumour inoculum
[29] = EDO60: EDO-S101 60 mg/kg, day 49 from tumour inoculum
[30] = EDO60: EDO-S101 60 mg/kg, day 53 from tumour inoculum
[31] = EDO60: EDO-S101 60 mg/kg, day 56 from tumour inoculum
[32] = EDO80: EDO-S101 80 mg/kg, day 9 from tumour inoculum (treatment start)
[33] = EDO80: EDO-S101 80 mg/kg, day 10 from tumour inoculum
[34] = EDO80: EDO-S101 80 mg/kg, day 11 from tumour inoculum
[35] = EDO80: EDO-S101 80 mg/kg, day 14 from tumour inoculum
[36] = EDO80: EDO-S101 80 mg/kg, day 16 from tumour inoculum
[37] = EDO80: EDO-S101 80 mg/kg, day 18 from tumour inoculum
[38] = EDO80: EDO-S101 80 mg/kg, day 21 from tumour inoculum
[39] = EDO80: EDO-S101 80 mg/kg, day 23 from tumour inoculum
[40] = EDO80: EDO-S101 80 mg/kg, day 25 from tumour inoculum
[41] = EDO80: EDO-S101 80 mg/kg, day 28 from tumour inoculum
[42] = EDO80: EDO-S101 80 mg/kg, day 30 from tumour inoculum
[43] = EDO80: EDO-S101 80 mg/kg, day 32 from tumour inoculum
[44] = EDO80: EDO-S101 80 mg/kg, day 35 from tumour inoculum
[45] = EDO80: EDO-S101 80 mg/kg, day 38 from tumour inoculum
[46] = EDO80: EDO-S101 80 mg/kg, day 42 from tumour inoculum
[47] = EDO80: EDO-S101 80 mg/kg, day 46 from tumour inoculum
[48] = EDO80: EDO-S101 80 mg/kg, day 49 from tumour inoculum

Cn1c(CCCCCCC(=O)NO)nc2cc(N(CCCl)CCCl)ccc21 [EDO-S101, 7-(5-(bis(2-chloroethyl)amino)-1-methyl-1H-benzo[d]imidazol-2-yl)-N-hydroxyheptanamide]
mice found dead (40 mg/kg group, unknown reasons, probably not ascribable to the drug): One | maximum BWL (40 mg/kg, day 10, 24 h after the first dose): 5.4% | maximum BWL (60 mg/kg, day 25, 48 h after the third dose): 11.7% | maximum body weight loss (80 mg/kg, day 14, 5 days after administration): 19.3% | time to recovery from body weight loss (80 mg/kg, recovered by day 24): ≤ 10 days | Mouse body weight, group Mean [1]: 27.0 g | BWL % [1]: 0.0% | Mouse body weight, group Mean [2]: 25.6 g | BWL % [2]: −5.4% | Mouse body weight, group Mean [3]: 25.9 g | BWL % [3]: −4.0% | Mouse body weight, group Mean [4]: 26.6 g | BWL % [4]: −1.6% | Mouse body weight, group Mean [5]: 27.2 g | BWL % [5]: 0.7% | Mouse body weight, group Mean [6]: 26.1 g | BWL % [6]: −3.4% | Mouse body weight, group Mean [7]: 26.2 g | BWL % [7]: −3.0% | Mouse body weight, group Mean [8]: 27.1 g | BWL % [8]: 0.3% | Mouse body weight, group Mean [9]: 26.3 g | BWL % [9]: −2.9% | Mouse body weight, group Mean [10]: 27.7 g | BWL % [10]: 2.3% | Mouse body weight, group Mean [11]: 28.5 g | BWL % [11]: 5.3% | Mouse body weight, group Mean [12]: 28.7 g | BWL % [12]: 6.0% | Mouse body weight, group Mean [13]: 27.6 g | BWL % [13]: 0.0% | Mouse body weight, group Mean [14]: 25.6 g | BWL % [14]: −7.0% | Mouse body weight, group Mean [15]: 25.2 g | BWL % [15]: −8.6% | Mouse body weight, group Mean [16]: 25.4 g | BWL % [16]: −8.1% | Mouse body weight, group Mean [17]: 26.2 g | BWL % [17]: −5.1% | Mouse body weight, group Mean [18]: 25.2 g | BWL % [18]: −8.8% | Mouse body weight, group Mean [19]: 24.9 g | BWL % [19]: −9.8% | Mouse body weight, group Mean [20]: 25.0 g | BWL % [20]: −9.2% | Mouse body weight, group Mean [21]: 24.4 g | BWL % [21]: −11.7% | Mouse body weight, group Mean [22]: 25.3 g | BWL % [22]: −8.3% | Mouse body weight, group Mean [23]: 25.6 g | BWL % [23]: −7.3% | Mouse body weight, group Mean [24]: 26.4 g | BWL % [24]: −4.2% | Mouse body weight, group Mean [25]: 25.4 g | BWL % [25]: −8.0% | Mouse body weight, group Mean [26]: 25.8 g | BWL % [26]: −6.6% | Mouse body weight, group Mean [27]: 25.8 g | BWL % [27]: −6.5% | Mouse body weight, group Mean [28]: 25.1 g | BWL % [28]: −8.9% | Mouse body weight, group Mean [29]: 25.4 g | BWL % [29]: −8.1% | Mouse body weight, group Mean [30]: 26.7 g | BWL % [30]: −3.1% | Mouse body weight, group Mean [31]: 28.1 g | BWL % [31]: 2.0% | Mouse body weight, group Mean [32]: 27.9 g | Mouse body weight, individual mice (EDO80: EDO-S101 80 mg/kg, day 9 from tumour inoculum (treatment start), 80 mg/kg): 28.4 g and 25.3 g and 26.1 g and 26.6 g and 28.5 g and 27.5 g and 32 g and 28.7 g | BWL % [32]: 0.0% | Mouse body weight, group Mean [33]: 25.3 g | Mouse body weight, individual mice (EDO80: EDO-S101 80 mg/kg, day 10 from tumour inoculum, 80 mg/kg): 25.1 g and 22.8 g and 24 g and 24.8 g and 26.8 g and 24.4 g and 28.6 g and 25.5 g | BWL % [33]: −9.5% | Mouse body weight, group Mean [34]: 24.8 g | Mouse body weight, individual mice (EDO80: EDO-S101 80 mg/kg, day 11 from tumour inoculum, 80 mg/kg): 24.9 g and 22.6 g and 23.5 g and 24.7 g and 26 g and 24.4 g and 27.9 g and 24.3 g | BWL % [34]: −11.1% | Mouse body weight, group Mean [35]: 22.5 g | Mouse body weight, individual mice (EDO80: EDO-S101 80 mg/kg, day 14 from tumour inoculum, 80 mg/kg): 21.8 g and 19.4 g and 22.4 g and 23.5 g and 23.2 g (2×) and 23.8 g and 22.7 g | BWL % [35]: −19.3% | Mouse body weight, group Mean [36]: 23.9 g | Mouse body weight, individual mice (EDO80: EDO-S101 80 mg/kg, day 16 from tumour inoculum, 80 mg/kg): 23.3 g and 19.7 g and 24.2 g and 25.1 g and 24.8 g and 24.4 g and 26.9 g and 22.9 g | BWL % [36]: −14.3% | Mouse body weight, group Mean [37]: 25.2 g | Mouse body weight, individual mice (EDO80: EDO-S101 80 mg/kg, day 18 from tumour inoculum, 80 mg/kg): 24.1 g and 22.2 g and 24.8 g and 26 g and 27 g and 26.1 g and 28 g | BWL % [37]: −9.6% | Mouse body weight, group Mean [38]: 26.2 g | Mouse body weight, individual mice (EDO80: EDO-S101 80 mg/kg, day 21 from tumour inoculum, 80 mg/kg): 25.7 g and 22.6 g and 26.5 g and 26.2 g and 27.4 g and 26.3 g and 29.6 g and 25.2 g | BWL % [38]: −6.1% | Mouse body weight, group Mean [39]: 26.6 g | Mouse body weight, individual mice (EDO80: EDO-S101 80 mg/kg, day 23 from tumour inoculum, 80 mg/kg): 26.1 g and 23.8 g and 26.6 g (3×) and 27.9 g and 30.1 g and 25.2 g | BWL % [39]: −4.6% | Mouse body weight, group Mean [40]: 27.8 g | Mouse body weight, individual mice (EDO80: EDO-S101 80 mg/kg, day 25 from tumour inoculum, 80 mg/kg): 27 g and 25.1 g and 27.9 g and 27.7 g and 28.8 g | BWL % [40]: −0.4% | Mouse body weight, group Mean [41]: 28.9 g | Mouse body weight, individual mice (EDO80: EDO-S101 80 mg/kg, day 28 from tumour inoculum, 80 mg/kg): 27.9 g and 25.4 g and 28.7 g and 28.1 g | BWL % [41]: 3.6% | Mouse body weight, group Mean [42]: 28.5 g | Mouse body weight, individual mice (EDO80: EDO-S101 80 mg/kg, day 30 from tumour inoculum, 80 mg/kg): 28.2 g and 25.3 g and 27.3 g and 27.9 g | BWL % [42]: 2.1% | Mouse body weight, group Mean [43]: 28.0 g | Mouse body weight, individual mice (EDO80: EDO-S101 80 mg/kg, day 32 from tumour inoculum, 80 mg/kg): 27.4 g (2×) and 24.9 g and 26.6 g | BWL % [43]: 0.4% | Mouse body weight, group Mean [44]: 25.1 g | Mouse body weight, individual mice (EDO80: EDO-S101 80 mg/kg, day 35 from tumour inoculum, 80 mg/kg): 24.4 g and 21.9 g and 24.8 g and 26.1 g | BWL % [44]: −9.9% | Mouse body weight, group Mean [45]: 25.0 g | Mouse body weight, individual mice (EDO80: EDO-S101 80 mg/kg, day 38 from tumour inoculum, 80 mg/kg): 24.4 g and 21.8 g and 25.1 g and 25.3 g | BWL % [45]: −10.4% | Mouse body weight, group Mean [46]: 27.1 g | Mouse body weight, individual mice (EDO80: EDO-S101 80 mg/kg, day 42 from tumour inoculum, 80 mg/kg): 26.3 g and 23.1 g and 27 g and 28 g | BWL % [46]: −2.9% | Mouse body weight, group Mean [47]: 28.8 g | Mouse body weight, individual mice (EDO80: EDO-S101 80 mg/kg, day 46 from tumour inoculum, 80 mg/kg): 28.6 g and 25.3 g and 28.3 g and 30 g | BWL % [47]: 3.1% | Mouse body weight, group Mean [48]: 30.2 g | Mouse body weight, individual mice (EDO80: EDO-S101 80 mg/kg, day 49 from tumour inoculum, 80 mg/kg): 29.8 g and 26 g and 30 g and 32.3 g | BWL % [48]: 8.2% | BWL during second cycle (all dose regimens): < 9%
